Data from paper PMC6312923 (Life Science Alliance, 2018).

B1: Cdt2^PIP-3A: Cdt2 with I709, Y712, and F713 all mutated to alanine (protein, UniProt Q9NZJ0 1-730, looked up, variant I709A Y712A F713A)
Denticleless protein homolog: MLFNSVLRQPQLGVLRNGWSSQYPLQSLLTGYQCSGNDEHTSYGETGVPVPPFGCTFSSAPNMEHVLAVANEEGFVRLYNTESQSFRKKCFKEWMAHWNAVFDLAWVPGELKLVTAAGDQTAKFWDVKAGELIGTCKGHQCSLKSVAFSKFEKAVFCTGGRDGNIMVWDTRCNKKDGFYRQVNQISGAHNTSDKQTPSKPKKKQNSKGLAPSVDFQQSVTVVLFQDENTLVSAGAVDGIIKVWDLRKNYTAYRQEPIASKSFLYPGSSTRKLGYSSLILDSTGSTLFANCTDDNIYMFNMTGLKTSPVAIFNGHQNSTFYVKSSLSPDDQFLVSGSSDEAAYIWKVSTPWQPPTVLLGHSQEVTSVCWCPSDFTKIATCSDDNTLKIWRLNRGLEEKPGGDKLSTVGWASQKKKESRPGLVTVTSSQSTPAKAPRAKCNPSNSSPSSAACAPSCAGDLPLPSNTPTFSIKTSPAKARSPINRRGSVSSVSPKPPSSFKMSIRNWVTRTPSSSPPITPPASETKIMSPRKALIPVSQKSSQAEACSESRNRVKRRLDSSCLESVKQKCVKSCNCVTELDGQVENLHLDLCCLAGNQEDLSKDSLGPTKSSKIEGAGTSISEPPSPISPYASESCGTLPLPLRPCGEGSEMVGKENSSPENKNWLLAMAAKRKAENPSPRSPSSQTPNSRRQSGKKLPSPVTITPSSMRKACTAAHRKSQEDFCGPEHSTEL
modifications: FLAG tag
notes: Cdt2 with I709, Y712, and F713 all mutated to alanine

Tests used:
Format in all cases: cell-based, human
[1] = tested on: Cdt1 and p21 poly-ubiquitination; assay: Poly-ubiquitination of Cdt1 and p21 in U2OS cells; conditions: U2OS stable cells, MG132 3 h
Description: To consider this possibility, asynchronously growing control HEK293 cells and cells expressing Cdt2^WT or Cdt2^PIP-3A were treated with proteasome inhibitor MG132 and the levels of poly-ubiquitinated Cdt1 were examined. […] Cdt2^PIP-3A-expressing cells however had reduced level of both poly-ubiquitinated Cdt1 and p21 on chromatin.
Figure S7. Cdt2 PIP box is important for CRL4^Cdt2 activity in U2OS cells. (A) U2OS stable cells expressing Cdt2^WT or Cdt2^PIP-3A. U2OS cells were transfected with expression vectors for Cdt2^WT-FLAG or Cdt2^PIP-3A-FLAG, and isolated stable clones were verified by immunofluorescent analysis and Western blot analysis. Frequency of expressing cells for each construct was shown (%). (B) Poly-ubiquitination assay with U2OS stable cells. U2OS cells and Cdt2^WT-3FLAG or Cdt2^PIP-3A-3FLAG expressing stable U2OS cells were treated with MG132 for 3 h or not (−), and whole-cell extracts were prepared for Western blotting. (C) Cells were transfected with siCdt2 or control siLuc for 72 h, irradiated with UV (+, 5 J/m^2) or not (−), and collected 1h later for Western blotting. Relative levels of Cdt1 were shown, UV (−) level set as 1.0 (average of two independent experiments).

[2] = tested on: PCNA; assay: Co-immunoprecipitation of PCNA with FLAG-tagged Cdt2 constructs; conditions: for interaction with PCNA (reverse IP, anti-Myc): Myc-PCNA co-transfected, HEK293; for interaction with PCNA (anti-FLAG IP): cross-linked cells, 3FLAG fusions, no UV
Excerpt: Before cell lysate preparation, cells were cross-linked.
Figure 3. […] HEK293 cells were transfected with plasmids expressing the indicated Cdt2 fused to a C-terminal FLAG tag, cross-linked, and precipitated with anti-FLAG antibodies (arrows). […] The bands in the blank lanes for Cul4A blotting correspond to the cross-reacting bands to pre-stained marker. […] HEK293 cells were transfected with the indicated plasmids and treated as in A. * indicates nonspecific bands derived from IgGs. (C) A schematic drawing of the Cdt2 domain structure highlighting the C-terminal PIP box and a sequence alignment of PIP boxes in various organisms. The alanine-changed PIP box mutant of Cdt2 was shown (PIP-3A) together with Cdt1 PIP box. (D) HEK293 cells were transfected with Cdt2^WT or PIP box mutant (Cdt2^PIP-3A) C-terminally fused to a FLAG tag, treated as in B, and Cdt2 was precipitated with anti-FLAG resin.
Control or Cdt2-FLAG expressing 293 cells that were UV irradiated (50 J/m^2), or not UV irradiated, or in the middle S phase (5 h after release from aphidicolon arrest) were fixed with 0.02% formaldehyde for 10 min, lysed using 0.1% Triton X-100-containing modified cytoskeleton (mCSK) buffer (10 mM Pipes, pH 7.9, 100 mM NaCl, 300 mM sucrose, 0.1% [vol/vol] Triton X-100, 1 mM phenylmethylsulfonyl fluoride, 10 mM β-glycerophosphate, 1 mMNa3VO4, 10 mM NaF), and then sonicated. After centrifugation (120,000g, Beckman Type 45Ti rotor, for 20 min at 4°C), the supernatants were mixed with anti-FLAG antibody-conjugated magnetic beads (M8823; Sigma-Aldrich) for 1 h at 4°C to obtain immunoprecipitates. The precipitate was washed with ice-cold 0.1% Triton X-100 containing mCSK buffer and subsequently suspended in SDS sample buffer.

[3] = tested on: Cdt1 degradation, U2OS cells; assay: Cdt1 degradation after UV irradiation in U2OS cells; conditions: for Cdt1 degradation after UV: siCdt2 (3′ UTR), UV 20 J/m^2
Excerpt: Because the poly-ubiquitination activity of Cdt2^PIP-3A was reduced, we monitored the degradation of Cdt1 after UV irradiation. Asynchronously growing control U2OS cells and cells expressing Cdt2^WT or Cdt2^PIP-3A (Fig S7) were depleted of endogenous Cdt2 using an siRNA targeted to the 3′ UTR, and irradiated with UV.
Figure 7. The Cdt2 PIP box plays an important role for rapid Cdt1 degradation after UV irradiation. (A) U2OS cells and U2OS cells stably expressing Cdt2^WT-3FLAG or Cdt2^PIP-3A-3FLAG were transfected with siCdt2 targeted to the 3′ UTR or control siLuc for 48 h, irradiated with UV (+, 20 J/m^2) or not (−), and collected at the indicated time points (min) for Western blotting. (B) The protein levels were measured and the relative amounts of Cdt1, normalized to RCC1, after UV irradiation were shown, UV (−) level set as 1.0. Error bars represent SD from three independent experiments. (C) Cells were transfected with siCdt2 or control siLuc for 72 h, irradiated with UV (+, 5 J/m^2) or not (−) (not shown), and 1h later fixed for staining with Cdt1 and cyclinA antibodies. (D) The frequency of Cdt1-positive (+) cells among the total cells in (C) was shown (%) (average of two independent experiments).
Double-stranded RNAs were transfected at 100 nM using Oligofectamine (Invitrogen) or HiPerFect (QIAGEN). Twenty-four hours after the first transfection, a second transfection was performed and cells were cultured for two more days. The following siRNAs were made by Dharmacon: Skp2; […], Cdt2_3′UTR; […]. The siRNA for siLuc, known as GL2, was used as a control siRNA. For Cdt1 silencing in Fig 1A and B, unsychronized HeLa cells were transfected twice with 200 nM of Cdt1 siRNA or control luciferase siRNA using Lipofectamine 2000 with a time interval of 24 h and were analysed 48 h after the second transfection. In synchronized MCF7 cells (Fig 1D), a single transfection with 200 nM of Cdt1 siRNA or control luciferase siRNA using Lipofectamine 2000 5 h after release from thymidine and before adding nocodazole was carried out. The Cdt1 siRNA was made by MWG: […].

Molecule | poly-ubiquitination of Cdt1 and p21 [1] | interaction with PCNA (reverse IP, anti-Myc) [2] | interaction with PCNA (anti-FLAG IP) [2] | Cdt1 degradation after UV [3] | Cdt1 stability after low-dose UV ([3]; siCdt2, UV 5 J/m^2, 1 h post UV)
Cdt2: Cdt2 tagged with GFP, transiently expressed in MCF7 cells | Increased levels | co-precipitated with Myc-PCNA | interact with PCNA | restored Cdt1 degradation to similar kinetics to that of control siRNA-transfected U2OS cells | 
B1 |  | not detected in the precipitates | lost almost entirely | much less effective in rescuing Cdt2 depletion | Cdt1 remained stable 1 h post UV irradiation
